As a reminder, the pKa is the negative logarithm of the acid dissociation constant. Low values mean a group that gives up its proton readily, high ones a group that holds its proton tightly.

Where a SMILES comes first, the peptide text is derived from it. [ ]: non-standard residue; d: D form. pGlu = O=C1CC[C@@H](C(=O)O)N1

pKa data for 131 compounds are collected here from the pKa sets of Baltruschat and Czodrowski (2020).

For one data set the following is noted: acidic group.
Compound `CCC1(c2ccccc2)C(=O)NC(=S)N(C)C1=O` (stereo not drawn) yielded a pKa of 7.65.
The same measure, in the same setting: with `O=C(O)c1cccc([N+](=O)[O-])c1C(=O)c1ccccc1` the figure was 2.87; with `O=C1C=CC(=O)/C(=N/O)N1`, 8.4.
`CC(C)=CCC1=C(O)[C@](O)(CC=C(C)C)C(=O)C(C(=O)CC(C)C)=C1O` showed a pKa of 4.22.
As for `CC(C(N)=O)S(=O)(=O)NC(N)=O` (stereo not drawn), the pKa was 5.21.
Turning to `C[C@H](NC(=O)[C@H](CCC(N)=O)NC(=O)[C@@H]1CCC(=O)N1)C(=O)O` ([pGlu]-Gln-Ala-OH), the pKa came out at 3.67.
Take `Nc1cc[nH+]c2c1ncn2CCOCP(=O)(O)O`: the pKa is 1.11.
In turn, `O=C(c1ccc([N+](=O)[O-])cc1)c1cc[nH]n1` displayed a pKa of 11.7.
In the case of `Oc1cccc2c1CCCC2`, the pKa worked out at 10.5.
For the compound `Cc1c(I)cccc1C(=O)O`, the pKa worked out at 3.26.
For the compound `CC(C)[C@H]1C[NH2+][C@H](C(=O)[O-])[C@H]1CC(=O)O`, the pKa was determined as 4.23.
Same read-out and setting: under `CCc1nnn[nH]1` stands 5.59; under `O=C1C[C@@H](C(=O)O)[C@@H](C(=O)O)O1`, 2.26.
Compound `Cc1ncnc2nc[nH]c12` returned a pKa of 9.21.
Regarding `N#CCc1ccc(C#N)cc1[N+](=O)[O-]`, the pKa turned out to be 11.4.
The same measure, in the same setting: under `Oc1ccc2c(cnc3ccccc32)c1` stands 8.68; under `CC(C)(/C=C/C(=O)O)c1cc([N+](=O)[O-])ccc1O`, 4.26.
Turning to `CCN(CC)C(=S)NC(=O)c1ccc(F)cc1`, the pKa amounted to 8.13.
`O=C(O)c1c[nH]c2ccccc12` gave a pKa of 5.27.
As for `O=[N+]([O-])c1ccc(S(=O)(=O)NCc2ccccc2)cc1`, the pKa was found to be 10.1.
`CC(=O)CC(=O)C(C)(C)C` displayed a pKa of 9.94.
As to `Cc1c(Cn2cc[nH+]c2)sc2ccc(C(=O)O)cc12`, the pKa was 3.82.
For the compound `CCc1cc2c(C)cc(=O)oc2cc1O`, the pKa came to 8.01.
The compound `CC(=O)c1ccc(O)cc1` gave a pKa of 7.9.
For the compound `Cc1ncnc2c(O)cccc12`, the pKa stood at 8.75.
In turn, `CC(C)CS(=O)O` had a pKa of 2.75.
Still for that read-out and setting: with `Oc1cccc(O)c1O` the figure was 8.97; with `Cc1nc2c(=O)[nH]c(=O)[nH]c2n1C`, 6.2; with `CCCCCCCCCc1c(O)n[nH]c1-c1ccccc1`, 10.6.
On the same count and under the same terms, under `Oc1[nH+]cnc2ccccc12` stands 2.12.
As to `CCCCc1cc(Cl)cc(Cl)c1O`, the pKa was 8.1.
`CCOC(=O)c1c(C)nc(C)c(C(=O)OCC)c1-c1ccc(NS(=O)(=O)c2ccc(N)cc2)cc1` gave a pKa of 9.15.
Same read-out and setting: with `Cc1cccc(NC=S)c1` the figure was 11.6; with `Nc1ccc[nH+]c1C(=O)O`, 1.33.
Still for that read-out and setting: with `CC(C)(S)C(C(=O)[O-])n1ccnc1Cc1ccccc1` (stereo not drawn) the figure was 10.5; with `CSC(C)C(=O)O` (stereo not drawn), 3.76.
Turning to `O=[N+]([O-])c1ccc2c(c1)C([P+](c1ccccc1)(c1ccccc1)c1ccccc1)c1ccccc1-2.[Br-]` (stereo not drawn), the pKa amounted to 5.36.
On to `CC(C)C(Br)C(=O)O` (stereo not drawn), for which the pKa was determined as 2.82.
`O=C(Cc1ccccc1)NO` showed a pKa of 9.26.
Compound `COc1ccc(O)c(C[NH2+]C(CO)C(=O)O)c1` (stereo not drawn) yielded a pKa of 2.1.
Still for that read-out and setting: under `O=Cc1cc([N+](=O)[O-])cc(Br)c1O` stands 3.48; under `O=C(O)c1cc(=O)cco1`, 1.5; under `CC(C[NH3+])C(=O)O` (stereo not drawn), 3.53.
Same read-out and setting: with `O=C(N/N=C/c1ccccc1[O-])c1ccncc1` the figure was 11.3.
Regarding `CC(C)([SeH])C[NH3+]`, the pKa was found to be 5.21.
With `O=C([O-])CCc1nc2ccccc2[nH]1`, the pKa was 13.1.
`Cc1cccc([N+](=O)[O-])c1C(=O)O` had a pKa of 2.13.
`Cc1ccc(O)c(C(=O)O)c1` showed a pKa of 3.01.
On the same count and under the same terms, under `N#CC[N+](=O)[O-]` stands 4.86; under `CC(C)c1cccc(C(=O)O)c1`, 4.27; under `O=[PH]([O-])C(NCc1cccnc1)c1ccccc1O` (stereo not drawn), 12.
`CC(=O)[n+]1cccc(Cl)c1` registered a pKa of 2.98.
With `O=[N+]([O-])c1cc(Cl)ccc1[Se]O`, the pKa was found to be 10.2.
`Oc1ccccc1I` registered a pKa of 8.4.

The same data set, now with this note: basic group.
In the case of `Cn1/c(=N/N)ccc2ccccc21`, the pKa was 9.17.
The compound `CC1=C(CC(C)NCC(O)c2ccc([N+](=O)[O-])cc2)CCC1(C)C` (stereo not drawn) registered a pKa of 8.36.
Compound `O=C1CCC[C@H]2[C@H]3C[C@@H](CN12)[C@H]1CCCCN1C3` showed a pKa of 9.2.
In the case of `NCCNCc1ccccc1`, the pKa was found to be 9.41.
`NCCCCCCCCCC(=O)[O-]` showed a pKa of 11.
The compound `CN1CCC=C(C(=O)[O-])C1` had a pKa of 9.07.
`N=C(c1ccccc1)c1cccc(Cl)c1` showed a pKa of 5.69.
Regarding `[O-]c1ncnc2cccnc12`, the pKa was determined as 8.95.
Regarding `Nc1cc[nH+]c2c1ncn2CCOCP(=O)(O)O`, the pKa is 0.05.
Compound `COc1c(C)ncc(CO)c1C=O` showed a pKa of 4.75.
Take `NC[C@@H](O)[C@H]1NC(N)=[NH+][C@@H]1C(=O)[O-]`: the pKa came to 9.3.
`C[C@H](N)[C@H](O)c1ccc(O)cc1` yielded a pKa of 8.69.
In turn, `c1c[nH]c(P(c2ncc[nH]2)c2ncc[nH]2)n1` showed a pKa of 7.44.
Compound `NCC(O)c1ccc(Cl)cc1` (stereo not drawn) gave a pKa of 9.04.
As to `Nc1ccc2ccc([N+](=O)[O-])cc2c1`, the pKa was found to be 3.13.
On the same count and under the same terms, with `CC(CN1c2ccccc2Sc2ccccc21)N(C)C` (stereo not drawn) the figure was 8.65; with `O=Cc1ccc2ccccc2n1`, 3.1.
Regarding `CC[NH+](CC)CCCC(C)Nc1ccnc2ccc(OC)cc12` (stereo not drawn), the pKa came to 8.7.
On to `CCN(CC)CCCCC#N`, for which the pKa was found to be 10.1.
`CCCCN(CC(C)O)CC(C)O` (stereo not drawn) returned a pKa of 9.3.
For the compound `C/N=C1/CCCCC1C` (stereo not drawn), the pKa is 9.47.
On to `CCc1ccc(OC)c(C(=O)NC[C@H]2CCCN2CC)c1[O-]`, for which the pKa turned out to be 9.54.
`C/N=c1/scc(C)n1C` yielded a pKa of 9.97.
Same read-out and setting: under `CCN(CC)N(CC)CC` stands 7.31.
`COc1ccc(-c2nc3cnccc3n2C)c(OC)c1` came in with a pKa of 6.16.
`Cc1ncnc2nc[nH]c12`: the pKa came out at 2.6.
Still for that read-out and setting: with `Nc1nc(N)c2[nH]c(N)[nH+]c2n1` the figure was 2.41; with `CCCCNCCN`, 10.3; with `Cc1cc(C)c(C[NH3+])cc1N`, 4.57.
In turn, `Oc1ccc2c(cnc3ccccc32)c1` had a pKa of 4.39.
The compound `Cc1ccc(/N=N/c2ccc(N(C)C)cc2)cc1C` showed a pKa of 2.37.
The same measure, in the same setting: with `C1CNCCSCC[NH2+]C1` the figure was 3.23.
`NC(=O)CC(=O)c1ccccn1` gave a pKa of 8.23.
Turning to `NCCCc1ccccn1`, the pKa is 10.1.
On to `CC(C)(C)N1CC(O[Si](C)(C)C)C1`, for which the pKa is 9.24.
On the same count and under the same terms, under `Cc1cnc2c(cc(C)c3cccnc32)c1C` stands 5.93; under `Cc1ncnc2c(O)cccc12`, 2.9; under `CC1CCN(c2cc[nH+]cc2)CC1`, -0.56.
Still for that read-out and setting: with `CCC(=O)C1(c2cccc(O)c2)CCN(C)CC1` the figure was 8.67; with `OCCNC1CCN(Cc2ccccc2)CC1`, 9.24.
Consider `Ic1cccc(C2NCCS2)c1` (stereo not drawn), for which the pKa stood at 4.93.
In turn, `O=C(Cc1ccccc1Nc1c(Cl)cccc1Cl)OCCCCN1CCOCC1` gave a pKa of 8.4.
The compound `CC(CC[NH+](C)C)NN` (stereo not drawn) displayed a pKa of 5.9.
In turn, `NC(C[NH3+])C[NH3+]` had a pKa of 3.72.
The compound `C[NH2+]CCCNc1c2ccccc2nc2cccc([N+](=O)[O-])c12` had a pKa of 6.2.
Still for that read-out and setting: with `C=CCN(CC1CO1)CC1CO1` (stereo not drawn) the figure was 6.16; with `Brc1ccc(C2NCCS2)cc1` (stereo not drawn), 5.05; with `COc1nc(N)c2cnn(C)c2n1`, 3.66.
The same measure, in the same setting: with `c1ccc(-c2cccnc2)nc1` the figure was 4.42; with `OC(CN1CCOCC1)C[NH+]1CCOCC1`, 5.
In turn, `CCOCCn1c(CN2CC[NH+](CCCCn3cc(C(=O)O)cn3)CC2)nc2ccccc21` returned a pKa of 4.9.
The compound `N[C@@H](CCCCN1C(=O)C[C@H](N)C1=O)C(=O)[O-]` had a pKa of 9.5.
Still for that read-out and setting: with `C#CCCN(C)C` the figure was 8.33.
`CN1C[C@@H](C(=O)[O-])C[C@@]2(O)c3cccc4[nH]cc(c34)C[C@@H]12`: the pKa worked out at 9.2.
On to `CCCCCCCN`, for which the pKa stood at 10.3.
In turn, `CCCCCCCCCCCCCCCCCCN(CC(C)O)CC(C)O` (stereo not drawn) returned a pKa of 9.4.
For `CC(C)N(C)/C=[NH+]/c1ccc(-c2c[nH]cn2)cc1`, the pKa worked out at 5.52.
`CC(C)(S)C(C(=O)[O-])n1ccnc1Cc1ccccc1` (stereo not drawn) gave a pKa of 7.
As for `COC(=O)c1cccc(N)c1`, the pKa amounted to 3.55.
Same read-out and setting: under `CCN(CC)CCSC(C)C` stands 9.32.
Consider `CNNC1CCN(C)CC1`, for which the pKa is 8.7.
Still for that read-out and setting: with `CCN(CC)CCNc1cc(C)nc(Nc2ccc(Cl)cc2)n1` the figure was 9.05; with `COc1ccc(-c2nc3ncccc3[nH]2)c(OC)c1`, 4.63.
`COc1ncnc2nccnc12`: the pKa was 1.04.
`NC(=S)C1(N)CCCCC1` registered a pKa of 7.23.
`Cc1nc2ccccc2nc1[O-]` registered a pKa of 9.88.
The same measure, in the same setting: under `C[NH+](C)CCN1C=Nc2cccc3cccc1c23` stands 4.64.
As to `CCSCCN(CC)CC`, the pKa was found to be 9.03.
Turning to `CNc1ccc(OC)cc1`, the pKa is 5.93.
Same read-out and setting: under `COc1c(C(=O)N[C@@H]2C[C@H]3CC[C@@H](C2)N3Cc2ccccc2)cccc1[N+](=O)[O-]` stands 8.61; under `O=C([O-])[C@@H]1CCCN1C(=O)[C@@H]1CCCN1` (H-Pro-Pro-OH), 9.27; under `Nc1ccnc(-c2cc(Cl)ccn2)c1`, 7.4.
Consider `NCCc1ccc(Cl)cc1`, for which the pKa stood at 9.66.
The compound `O=C([O-])CCc1nc2ccccc2[nH]1` displayed a pKa of 5.7.
The compound `CNc1ccnc([S-])n1` had a pKa of 11.1.
Turning to `NCCCNCCCN`, the pKa was 10.7.
`Cc1ccno1` showed a pKa of 2.3.
On the same count and under the same terms, with `Cc1nn(C)c(C)c1Cl` the figure was 1.96; with `Nc1ccc2cc([N+](=O)[O-])ccc2c1`, 2.9.
Turning to `NC(=O)C(c1ccccc1)c1ccccn1` (stereo not drawn), the pKa was 3.8.
Compound `O=[PH]([O-])C(NCc1cccnc1)c1ccccc1O` (stereo not drawn) gave a pKa of 8.05.
In turn, `CNc1ccncn1` displayed a pKa of 6.12.
In turn, `[O-]c1[nH+]cncc1O` had a pKa of 1.99.
`CN[C@H]1C[C@]1(C)NC` registered a pKa of 9.05.
